In article PMC8037784 (Cancers, 2021):
Values joined by “and” are separate entries in the source; they are usually repeats but may differ in a detail not shown here. Equal entries are not always repeated.

Key:
CYP3A4 = details: cited from earlier work
[1] = Organ distribution of lenvatinib in rats with or without liver RT; assay type: in vivo, Sprague-Dawley rats; details: rat; for concentration at 6 h: Sprague-Dawley, po, 3 mg/kg; for concentration at 6 h / Concentration of lenvatinib in spleen: 6 h after administration
Excerpt: (§1) A freely moving rat model was designed for the current study. The rats were anesthetized and immobilized on a board while undergoing computed tomography to localize the whole liver or a central area measuring 1.5 cm × 1.5 cm for the SBRT technique. For the whole liver field, the cranial margin was set 5 mm from the top of the diaphragm, and the caudal margin was set 5 mm lower than the liver margin. The whole liver was targeted for irradiation. […] Data were collected from six rats per group.
(§2) A radiation dose of 2 Gy was considered the daily conventional EBRT dose or the off-target dose around the target that received an ablation RT dose. A dose of 9 Gy was used to simulate SBRT. […] Rats were initially anesthetized with pentobarbital (50 mg/kg, i.p.) and remained anesthetized throughout the experimental period. After surgery, the rats were placed in an experimental cage and allowed to recover for 1 day.
The brain, liver, heart, spleen, lung, and kidney were collected and weighed. These collected samples were stored at −20 °C until analysis.
The thawed organ samples were homogenized in 50% aqueous acetonitrile (the ratio of sample weight and volume was 1:5), and the homogenate was centrifuged at 13,000× g for 10 min at 4 °C. The supernatant was collected, placed in brown Eppendorf tubes, and stored at −20 °C until analysis. Briefly, each organ sample (50 μL) was combined with 150 μL of IS solution (diethylstilbestrol) for protein precipitation. Finally, 20 μL of filtrate was subjected to HPLC analysis.

in vivo = test: in vivo; parameters: species or system Sprague-Dawley rats; details: Sprague-Dawley, rat, po, 3 mg/kg
Description: The HPLC system consisted of a chromatographic pump (LC−20AT), an online injector (SIL−20C) equipped with a 10 μL sample loop to inject the sample, and an ultraviolet detector (SPD-M20A).
as §1
as §2, with “After surgery, the rats were placed in an experimental cage and allowed to recover for 1 day.” left out
PK parameters, including the area under the concentration–time curve (AUC), clearance (CL), elimination half-life (t1/2), volume of distribution at steady state (Vss), and mean residence time (MRT), were calculated using the PK calculation software WinNonlin Standard Edition, Version 1.1 (Scientific Consulting, Apex, NC, USA) by a compartmental method.

[2] = RT2Gy concurrent with lenvatinib
[3] = RT9Gy concurrent with lenvatinib

## COc1cc2nccc(Oc3ccc(NC(=O)NC4CC4)c(Cl)c3)c2cc1C(N)=O [lenvatinib, Lenvatinib]
CYP3A4
  Oxidative metabolism: mediated primarily by CYP3A4
[1]; brain, Concentration of lenvatinib in brain, 3 mg/kg p.o., RT2Gy concurrent with lenvatinib
  concentration at 6 h: 0 ng/mL
[1]; brain, Concentration of lenvatinib in brain, 3 mg/kg p.o., RT2Gy followed by lenvatinib
  concentration at 6 h: 0 ng/mL
[1]; brain, Concentration of lenvatinib in brain, 3 mg/kg p.o., RT9Gy concurrent with lenvatinib
  concentration at 6 h: 0 ng/mL
[1]; brain, Concentration of lenvatinib in brain, 3 mg/kg p.o., RT9Gy followed by lenvatinib
  concentration at 6 h: 0 ng/mL
[1]; brain, Concentration of lenvatinib in brain, 3 mg/kg p.o., lenvatinib only
  concentration at 6 h: 0 ng/mL
[1]; heart, Concentration of lenvatinib in heart, 3 mg/kg p.o., RT2Gy concurrent with lenvatinib
  concentration at 6 h: 32 ± 40 ng/mL
[1]; heart, Concentration of lenvatinib in heart, 3 mg/kg p.o., RT2Gy followed by lenvatinib
  concentration at 6 h: 74 ± 40 ng/mL
[1]; heart, Concentration of lenvatinib in heart, 3 mg/kg p.o., RT9Gy concurrent with lenvatinib
  concentration at 6 h: 15 ± 40 ng/mL
[1]; heart, Concentration of lenvatinib in heart, 3 mg/kg p.o., RT9Gy followed by lenvatinib
  concentration at 6 h: 78 ± 40 ng/mL
[1]; heart, Concentration of lenvatinib in heart, 3 mg/kg p.o., lenvatinib only
  concentration at 6 h: 50 ± 50 ng/mL
[1]; kidney, Concentration of lenvatinib in kidney, 3 mg/kg p.o., RT2Gy concurrent with lenvatinib
  concentration at 6 h: 113 ± 30 ng/mL
[1]; kidney, Concentration of lenvatinib in kidney, 3 mg/kg p.o., RT2Gy followed by lenvatinib
  concentration at 6 h: 230 ± 50 ng/mL
[1]; kidney, Concentration of lenvatinib in kidney, 3 mg/kg p.o., RT9Gy concurrent with lenvatinib
  concentration at 6 h: 129 ± 50 ng/mL
[1]; kidney, Concentration of lenvatinib in kidney, 3 mg/kg p.o., RT9Gy followed by lenvatinib
  concentration at 6 h: 223 ± 50 ng/mL
[1]; kidney, Concentration of lenvatinib in kidney, 3 mg/kg p.o., lenvatinib only
  concentration at 6 h: 175 ± 50 ng/mL
[1]; liver, Concentration of lenvatinib in liver, 3 mg/kg p.o., RT2Gy concurrent with lenvatinib
  concentration at 6 h: 72 ± 60 ng/mL
[1]; liver, Concentration of lenvatinib in liver, 3 mg/kg p.o., RT2Gy followed by lenvatinib
  concentration at 6 h: 158 ± 90 ng/mL
[1]; liver, Concentration of lenvatinib in liver, 3 mg/kg p.o., RT9Gy concurrent with lenvatinib
  concentration at 6 h: 93 ± 50 ng/mL
[1]; liver, Concentration of lenvatinib in liver, 3 mg/kg p.o., RT9Gy followed by lenvatinib
  concentration at 6 h: 161 ± 70 ng/mL
[1]; liver, Concentration of lenvatinib in liver, 3 mg/kg p.o., lenvatinib only
  concentration at 6 h: 104 ± 50 ng/mL
[1]; lung, Concentration of lenvatinib in lung, 3 mg/kg p.o., RT2Gy concurrent with lenvatinib
  concentration at 6 h: 33 ± 40 ng/mL
[1]; lung, Concentration of lenvatinib in lung, 3 mg/kg p.o., RT2Gy followed by lenvatinib
  concentration at 6 h: 92 ± 30 ng/mL
[1]; lung, Concentration of lenvatinib in lung, 3 mg/kg p.o., RT9Gy concurrent with lenvatinib
  concentration at 6 h: 42 ± 50 ng/mL
[1]; lung, Concentration of lenvatinib in lung, 3 mg/kg p.o., RT9Gy followed by lenvatinib
  concentration at 6 h: 75 ± 30 ng/mL
[1]; lung, Concentration of lenvatinib in lung, 3 mg/kg p.o., lenvatinib only
  concentration at 6 h: 108 ± 40 ng/mL
[1]; spleen, Concentration of lenvatinib in spleen, 3 mg/kg p.o., RT2Gy followed by lenvatinib
  concentration at 6 h: 73 ± 40 ng/mL
[1]; spleen, Concentration of lenvatinib in spleen, 3 mg/kg p.o., RT9Gy followed by lenvatinib
  concentration at 6 h: 60 ± 60 ng/mL
[1]; spleen, Concentration of lenvatinib in spleen, 3 mg/kg p.o., lenvatinib only
  concentration at 6 h: 30 ± 50 ng/mL
[1]; 3 mg/kg p.o., RT2Gy concurrent with lenvatinib
  Concentration of lenvatinib in spleen: 0 ng/mL
[1]; 3 mg/kg p.o., RT9Gy concurrent with lenvatinib
  Concentration of lenvatinib in spleen: 0 ng/mL
[1]; 3 mg/kg p.o., with or without RT
  Detection of lenvatinib in the brain: not detected
[1]; [2]
  Heart concentration decreased compared with the sham group: 36.0%
  Kidney concentration decreased compared with the sham group: 35.4%
  Liver concentration decreased compared with the sham group: 30.8%
  Lung concentration decreased compared with the sham group: 69.4%
  Spleen concentration decreased compared with the sham group: 100.0%
[1]; RT2Gy followed by lenvatinib
  Heart concentration increased compared with the sham group: 48.0%
  Kidney concentration increased compared with the sham group: 31.4%
  Liver concentration increased compared with the sham group: 51.9%
  Lung concentration decreased compared with the sham group: 15% and 14.8%
  Spleen concentration increased compared with the sham group: 143.3%
[1]; [3]
  Heart concentration decreased compared with the sham group: 70.0%
  Kidney concentration decreased compared with the sham group: 26.2%
  Liver concentration decreased compared with the sham group: 10.6%
  Lung concentration decreased compared with the sham group: 61.1%
  Spleen concentration decreased compared with the sham group: 100%
[1]; RT9Gy followed by lenvatinib
  Heart concentration increased compared with the sham group: 56.0%
  Kidney concentration increased compared with the sham group: 27.4%
  Liver concentration increased compared with the sham group: 54.8%
  Lung concentration decreased compared with the sham group: 31% and 30.6%
  Spleen concentration increased compared with the sham group: 100%
[1]; sequential RT regimen
  Increase of concentration in the heart: 50%
  Increase of concentration in the kidneys: 30%
  Increase of concentration in the liver: 50%
[1]; sequential regimen
  Increase of concentration in the spleen: more than 100%
In vivo
  concentration at 60 min: 940 ng/mL
